Patent US20210322426A1, “METHODS OF TREATING CANCER WITH PI3K ALPHA INHIBITORS AND METFORMIN” (Genentech, Inc., priority 2018, published 2021)
Like-named read-outs stand apart in the source and are kept apart here.

Legend:
[1] = tested on: human breast xenograft models harboring PIK3CA mutations; test: tumor growth in human breast xenograft models harboring PIK3CA mutations; assay type: in vivo
[2] = tested on: mutant p110 alpha; test: degradation of mutant p110 alpha (nonclinical studies)
[3] = tested on: tumor cells bearing mutant PI3K; details: mutant PI3K over wild type (WT) PI3K cells; cited from earlier work
[4] = biological target: Class I PI3K alpha isoform (Homo sapiens, UniProt P42336); details: PI3K alpha versus PI3K beta, delta and gamma isoforms; cited from earlier work
Sequence of Class I PI3K alpha isoform (P42336 whole entry, canonical isoform): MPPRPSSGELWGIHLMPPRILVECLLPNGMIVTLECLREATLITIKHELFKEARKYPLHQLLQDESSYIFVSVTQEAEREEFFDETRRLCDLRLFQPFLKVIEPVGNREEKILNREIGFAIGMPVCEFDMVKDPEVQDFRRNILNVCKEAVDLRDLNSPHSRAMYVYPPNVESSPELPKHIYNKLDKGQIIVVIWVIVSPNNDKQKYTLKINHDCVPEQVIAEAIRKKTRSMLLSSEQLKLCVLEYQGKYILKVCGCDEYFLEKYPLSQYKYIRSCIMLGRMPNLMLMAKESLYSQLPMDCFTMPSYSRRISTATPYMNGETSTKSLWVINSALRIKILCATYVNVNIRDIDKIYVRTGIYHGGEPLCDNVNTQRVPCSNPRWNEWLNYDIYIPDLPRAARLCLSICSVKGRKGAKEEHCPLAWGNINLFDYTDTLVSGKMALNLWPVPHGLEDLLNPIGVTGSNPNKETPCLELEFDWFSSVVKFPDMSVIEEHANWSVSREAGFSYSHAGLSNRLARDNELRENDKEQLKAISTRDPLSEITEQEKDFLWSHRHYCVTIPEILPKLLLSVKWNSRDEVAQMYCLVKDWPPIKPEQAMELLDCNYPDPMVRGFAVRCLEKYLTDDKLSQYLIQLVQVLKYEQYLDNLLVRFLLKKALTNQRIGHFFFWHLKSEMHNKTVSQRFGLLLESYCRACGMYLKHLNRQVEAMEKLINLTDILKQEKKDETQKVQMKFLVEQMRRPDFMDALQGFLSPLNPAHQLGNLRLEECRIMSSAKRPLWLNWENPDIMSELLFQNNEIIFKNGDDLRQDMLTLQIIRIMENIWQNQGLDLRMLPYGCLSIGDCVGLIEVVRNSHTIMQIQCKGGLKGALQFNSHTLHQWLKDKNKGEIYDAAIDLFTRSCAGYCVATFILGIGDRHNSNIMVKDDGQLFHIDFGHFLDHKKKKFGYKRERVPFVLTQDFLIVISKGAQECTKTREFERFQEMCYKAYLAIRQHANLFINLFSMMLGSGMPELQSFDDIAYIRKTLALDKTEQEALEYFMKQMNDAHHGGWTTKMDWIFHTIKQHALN
Sequence of Class I PI3K alpha isoform (P27986 whole entry partner, canonical isoform): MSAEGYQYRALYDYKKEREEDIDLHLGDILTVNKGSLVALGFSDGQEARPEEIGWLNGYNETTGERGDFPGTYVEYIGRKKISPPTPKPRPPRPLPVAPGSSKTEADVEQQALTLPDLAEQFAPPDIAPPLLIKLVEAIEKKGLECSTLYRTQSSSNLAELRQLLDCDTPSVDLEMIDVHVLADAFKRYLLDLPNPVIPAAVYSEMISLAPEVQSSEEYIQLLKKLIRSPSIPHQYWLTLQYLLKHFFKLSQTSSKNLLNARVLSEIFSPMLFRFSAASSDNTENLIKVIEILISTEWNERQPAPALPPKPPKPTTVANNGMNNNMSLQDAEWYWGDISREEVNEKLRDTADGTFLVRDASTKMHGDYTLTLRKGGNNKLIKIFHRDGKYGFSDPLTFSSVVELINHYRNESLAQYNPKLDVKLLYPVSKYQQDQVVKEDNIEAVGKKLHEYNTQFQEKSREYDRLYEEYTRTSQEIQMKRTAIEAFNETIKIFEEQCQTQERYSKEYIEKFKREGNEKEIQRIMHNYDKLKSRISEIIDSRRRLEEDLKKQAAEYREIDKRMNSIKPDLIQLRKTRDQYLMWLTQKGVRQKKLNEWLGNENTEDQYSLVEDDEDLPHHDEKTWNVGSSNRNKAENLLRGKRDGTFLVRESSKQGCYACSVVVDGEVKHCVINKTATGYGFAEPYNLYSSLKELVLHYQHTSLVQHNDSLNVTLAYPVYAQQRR

[5] = tested on: PIK3CA-mutant breast cancer cell lines; test: proliferation and apoptosis of PIK3CA-mutant breast cancer cell lines; assay type: cell-based; details: nonclinical studies
[6] = tested on: PI3K-pathway markers pAKT, pPRAS40, pS6; test: downstream PI3K-pathway markers (pAKT, pPRAS40, pS6)
[7] = tested on: patients with HR+/HER2- breast cancer; details: in combination with fulvestrant; cited from earlier work
[8] = tested on: patients with HR+/HER2- breast cancer; details: in combination with letrozole; cited from earlier work

For C[C@H](Nc1ccc2c(c1)OCCn1cc(N3C(=O)OC[C@H]3C(F)F)nc1-2)C(N)=O [GDC-0077, (S)-2-((2-((S)-4-(difluoromethyl)-2-oxooxazolidin-3-yl)-5,6-dihydrobenzo[f]imidazo[1,2-d][1,4]oxazepin-9-yl)amino)propanamide], the “tumor growth in xenograft models” value [1] is listed as “inhibits tumor growth”, the “degradation of mutant p110 alpha” value [2] is listed as “specifically degrades mutant p110 alpha” and the “potency in mutant PI3K tumor cells over wild type PI3K cells” value [3] is listed as “increased potency”. For the same molecule, the “fold less potent biochemical inhibition for other Class I PI3K isoforms” value [4] was > 300 fold, the “apoptosis of PIK3CA-mutant breast cancer cell lines” value [5] was “induces apoptosis” and the “proliferation of PIK3CA-mutant breast cancer cell lines” value [5] was “inhibits proliferation”. The “downstream PI3K-pathway markers” value [6] was “reduces downstream PI3K-pathway markers”.

In the case of CC(=O)c1c(C)c2cnc(Nc3ccc(N4CCNCC4)cn3)nc2n(C2CCCC2)c1=O [palbociclib, 6-acetyl-8-cyclopentyl-5-methyl-2-(5-(piperazin-1-yl)pyridin-2-ylamino)pyrido[2,3-d]pyrimidin-7(8H)-one], the “patients requiring 1 dose reduction of palbociclib” value [7] is listed as 34%, the “patients with cycle delays” value [7] is listed as 36% and the “patients with dose holds” value [7] is listed as 54%. For the same molecule, the “patients requiring 1 dose reduction of palbociclib” value [8] was 36%, the “patients with cycle delays” value [8] was 68% and the “patients with dose holds” value [8] was 70%.
